For 49 compounds, EC50 results are on record in US11452717B2, “Small molecule activators of nicotinamide phosphoribosyltransferase (NAMPT) and uses thereof” (Sanford Burnham Prebys Medical Discovery Institute, priority 2017, dated 2022).

The pEC50 is the negative decadic logarithm of the EC50, by convention in mol/L. Low values mean a large EC50, high ones a small EC50.

In the test the target is NAMPT enzyme (Homo sapiens (Human), UniProt P43490). The test is described as follows: Enzyme Assay and NMN Detection (NAMPT reaction, fluorescence detection of NMN). Type of test: biochemical. To be noted: NAMPT activation, NMN formation. In short, it runs like this: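 Reaction in 50 mM HEPES pH 7.5, 5 mM MgCl2, 0.1% Prionex, 0.005% Tween 20, 1 mM TCEP at room temperature, with 16 nM NAMPT, 120 uM ATP, 5 uM nicotinamide, 6.25 uM PRPP, 0.04 U/ml pyrophosphatase for 2 h. Stopped with acetophenone/KOH then formic acid; NMN quantified by fluorescence (ex380/em460) against calibration curve.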
Chain of NAMPT enzyme (P43490 whole entry, species assumed): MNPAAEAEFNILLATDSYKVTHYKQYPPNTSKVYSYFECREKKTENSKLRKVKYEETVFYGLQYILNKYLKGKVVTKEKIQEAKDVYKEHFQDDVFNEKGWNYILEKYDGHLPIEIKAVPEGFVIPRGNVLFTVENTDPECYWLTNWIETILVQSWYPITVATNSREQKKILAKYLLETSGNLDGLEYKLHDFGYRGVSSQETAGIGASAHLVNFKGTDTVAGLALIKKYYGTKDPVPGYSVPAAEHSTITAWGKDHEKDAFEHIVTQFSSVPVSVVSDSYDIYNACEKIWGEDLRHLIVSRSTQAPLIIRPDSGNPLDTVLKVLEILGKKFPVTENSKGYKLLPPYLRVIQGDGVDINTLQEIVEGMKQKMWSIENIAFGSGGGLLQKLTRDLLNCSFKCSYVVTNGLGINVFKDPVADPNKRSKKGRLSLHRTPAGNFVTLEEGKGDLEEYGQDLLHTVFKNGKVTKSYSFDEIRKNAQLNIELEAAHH

pEC50: −log10 of the molar value.

`NC(=O)c1ccc(NC(=O)NCc2ccncc2)cn1` [5-(3-(pyridin-4-ylmethyl)ureido)picolinamide] had a pEC50 (Table B-3) of 5.30 to 5.70.
In the case of `O=C(NCc1ccncc1)Nc1ccc(NS(=O)(=O)Cc2ccccc2Br)cc1` [C-(2-Bromo-phenyl)-N-[4-(3-pyridin-4-ylmethyl-ureido)-phenyl]-methanesulfonamide], the pEC50 (Table B-6) was > 7.00.
For the compound `O=C(NCc1cn[nH]c1)Nc1ccc(NS(=O)(=O)Cc2ccccc2Cl)cc1` [C-(2-Chloro-phenyl)-N-{4-[3-(1H-pyrazol-4-ylmethyl)-ureido]-phenyl}-methanesulfonamide], where the note is “Table B-4”, the pEC50 is > 7.00.
For `O=C(NCc1ccncc1)Nc1ccc(NS(=O)(=O)Cc2ccccc2F)cc1` [C-(2-Fluoro-phenyl)-N-[4-(3-pyridin-4-ylmethyl-ureido)-phenyl]-methanesulfonamide], the negative logarithm of the EC50 (pEC50) (Table B-6) is > 7.00.
Consider `COc1ccccc1CS(=O)(=O)Nc1ccc(NC(=O)NCc2ccncc2)cc1` [C-(2-Methoxy-phenyl)-N-[4-(3-pyridin-4-ylmethyl-ureido)-phenyl]-methanesulfonamide], for which the pEC50 (Table B-6) is 5.70 to 7.00.
Take `O=C(NCc1cn[nH]c1)Nc1ccc(NS(=O)(=O)Cc2ccc(Cl)c(Cl)c2)cc1` [C-(3,4-Dichloro-phenyl)-N-{4-[3-(1H-pyrazol-4-ylmethyl)-ureido]-phenyl}-methanesulfonamide]: the pEC50 (Table B-4) was > 7.00.
On to `O=C(NCc1cn[nH]c1)Nc1ccc(NS(=O)(=O)Cc2cccc(Cl)c2)cc1` [C-(3-Chloro-phenyl)-N-{4-[3-(1H-pyrazol-4-ylmethyl)-ureido]-phenyl}-methanesulfonamide], for which, where the note is “Table B-4”, the pEC50 was > 7.00.
As to `O=C(NCc1ccncc1)Nc1ccc(NS(=O)(=O)Cc2cccc(F)c2)cc1` [C-(3-Fluoro-phenyl)-N-[4-(3-pyridin-4-ylmethyl-ureido)-phenyl]-methanesulfonamide], the pEC50 (Table B-6) is > 7.00.
Still for that read-out and setting: in the case of `COc1cccc(CS(=O)(=O)Nc2ccc(NC(=O)NCc3ccncc3)cc2)c1` [C-(3-Methoxy-phenyl)-N-[4-(3-pyridin-4-ylmethyl-ureido)-phenyl]-methanesulfonamide] it was > 7.00.
The same measure, in the same setting: then `O=C(NCc1ccncc1)Nc1ccc(NS(=O)(=O)Cc2ccc(Br)cc2)cc1` [C-(4-Bromo-phenyl)-N-[4-(3-pyridin-4-ylmethyl-ureido)-phenyl]-methanesulfonamide], with > 7.00.
With `O=C(NCc1cn[nH]c1)Nc1ccc(NS(=O)(=O)Cc2ccc(Cl)cc2)cc1` [C-(4-Chloro-phenyl)-N-{4-[3-(1H-pyrazol-4-ylmethyl)-ureido]-phenyl}-methanesulfonamide], where the note is “Table B-4”, the negative logarithm of the EC50 (pEC50) is > 7.00.
Take `N#Cc1ccc(CS(=O)(=O)Nc2ccc(NC(=O)NCc3ccncc3)cc2)cc1` [C-(4-Cyano-phenyl)-N-[4-(3-pyridin-4-ylmethyl-ureido)-phenyl]-methanesulfonamide]: the pEC50 (Table B-6) was 5.70 to 7.00.
Turning to `O=C(NCc1ccncc1)Nc1ccc(NS(=O)(=O)Cc2ccc(C3CC3)cc2)cc1` [C-(4-Cyclopropyl-phenyl)-N-[4-(3-pyridin-4-ylmethyl-ureido)-phenyl]-methanesulfonamide], the pEC50 (Table B-6) is > 7.00.
Same read-out and setting: then `COc1ccc(CS(=O)(=O)Nc2ccc(NC(=O)NCc3ccncc3)cc2)cc1` [C-(4-Methoxy-phenyl)-N-[4-(3-pyridin-4-ylmethyl-ureido)-phenyl]-methanesulfonamide], with > 7.00; and `O=C(NCc1ccncc1)Nc1ccc(NS(=O)(=O)Cc2ccc(-c3ccccc3)cc2)cc1` [C-Biphenyl-4-yl-N-[4-(3-pyridin-4-ylmethyl-ureido)-phenyl]-methanesulfonamide], with > 7.00.
`CCOC(=O)c1ccccc1NC(=O)NCc1ccncc1` [Ethyl 2-(3-(pyridin-4-ylmethyl)ureido)benzoate]: where the note is “Table B-2”, the pEC50 is < 4.70.
On the same count and under the same terms, in the case of `CCOC(=O)c1cccc(NC(=O)NCc2ccncc2)c1` [Ethyl 3-(3-(pyridin-4-ylmethyl)ureido)benzoate] it was 4.70 to 5.30.
`CCOC(=O)c1ccc(NC(=O)NCC2CCNc3ccccc32)cc1` (centres unmarked) [Ethyl 4-(3-((1,2,3,4-tetrahydroquinolin-4-yl)methyl)ureido)benzoate]: under “Table B-3”, the pEC50 is < 4.70.
Regarding `CCOC(=O)c1ccc(NC(=O)NCc2cn(Cc3ccc(OC)cc3)nn2)cc1` [Ethyl 4-(3-((1-(4-methoxybenzyl)-1H-1,2,3-triazol-4-yl)methyl)ureido)benzoate], where the note is “Table B-1”, the pEC50 is < 4.70.
The same measure, in the same setting: then `CCOC(=O)c1ccc(NC(=O)NCc2cn(C)cn2)cc1` [Ethyl 4-(3-((1-methyl-1H-imidazol-4-yl)methyl)ureido)benzoate], with < 4.70.
Same read-out and setting: then `CCOC(=O)c1ccc(NC(=O)NCc2cncn2C)cc1` [Ethyl 4-(3-((1-methyl-1H-imidazol-5-yl)methyl)ureido)benzoate], with < 4.70; and `CCOC(=O)c1ccc(NC(=O)NCc2cnn(C)c2)cc1` [Ethyl 4-(3-((1-methyl-1H-pyrazol-4-yl)methyl)ureido)benzoate], with < 4.70; and `CCOC(=O)c1ccc(NC(=O)NCc2ccnn2C)cc1` [Ethyl 4-(3-((1-methyl-1H-pyrazol-5-yl)methyl)ureido)benzoate], with < 4.70.
For the compound `CCOC(=O)c1ccc(NC(=O)NCc2c[nH]nn2)cc1` [Ethyl 4-(3-((1H-1,2,3-triazol-4-yl)methyl)ureido)benzoate], for the setting “Table B-1”, the pEC50 is < 4.70.
Same read-out and setting: then `CCOC(=O)c1ccc(NC(=O)NCc2c[nH]cn2)cc1` [Ethyl 4-(3-((1H-imidazol-4-yl)methyl)ureido)benzoate], with < 4.70; and `CCOC(=O)c1ccc(NC(=O)NCc2cnc[nH]2)cc1` [Ethyl 4-(3-((1H-imidazol-5-yl)methyl)ureido)benzoate], with < 4.70.
For `CCOC(=O)c1ccc(NC(=O)NCc2cc[nH]n2)cc1` [Ethyl 4-(3-((1H-pyrazol-3-yl)methyl)ureido)benzoate], the pEC50 (Table B-1) was < 4.70.
On the same count and under the same terms, then `CCOC(=O)c1ccc(NC(=O)NCc2cn[nH]c2)cc1` [Ethyl 4-(3-((1H-pyrazol-4-yl)methyl)ureido)benzoate], with 5.70 to 7.00.
Consider `CCOC(=O)c1ccc(NC(=O)NCc2ccnc(N)c2)cc1` [Ethyl 4-(3-((2-aminopyridin-4-yl)methyl)ureido)benzoate], for which, under “Table B-2”, the pEC50 was < 4.70.
Turning to `CCOC(=O)c1ccc(NC(=O)NCc2ccnc(Cl)c2)cc1` [Ethyl 4-(3-((2-chloropyridin-4-yl)methyl)ureido)benzoate], the pEC50 (Table B-2) is < 4.70.
`CCOC(=O)c1ccc(NC(=O)NCc2ccnc(F)c2)cc1` [Ethyl 4-(3-((2-fluoropyridin-4-yl)methyl)ureido)benzoate]: the negative logarithm of the EC50 (pEC50) (Table B-2) is < 4.70.
The same measure, in the same setting: then `CCOC(=O)c1ccc(NC(=O)NCc2ccnc(OC)c2)cc1` [Ethyl 4-(3-((2-methoxypyridin-4-yl)methyl)ureido)benzoate], with < 4.70; and `CCOC(=O)c1ccc(NC(=O)NCc2ccnc(C)c2)cc1` [Ethyl 4-(3-((2-methylpyridin-4-yl)methyl)ureido)benzoate], with < 4.70.
Regarding `CCOC(=O)c1ccc(NC(=O)NCc2c(C)noc2C)cc1` [Ethyl 4-(3-((3,5-dimethylisoxazol-4-yl)methyl)ureido)benzoate], the pEC50 (Table B-1) was < 4.70.
As to `CCOC(=O)c1ccc(NC(=O)NCc2c[nH]nc2N)cc1` [Ethyl 4-(3-((3-amino-1H-pyrazol-4-yl)methyl)ureido)benzoate], the pEC50 (Table B-1) is < 4.70.
For `CCOC(=O)c1ccc(NC(=O)NCc2ccncc2N)cc1` [Ethyl 4-(3-((3-aminopyridin-4-yl)methyl)ureido)benzoate], the pEC50 (Table B-2) is < 4.70.
For `CCOC(=O)c1ccc(NC(=O)NCc2ccncc2Cl)cc1` [Ethyl 4-(3-((3-chloropyridin-4-yl)methyl)ureido)benzoate], the pEC50 runs as follows: (Table B-2) < 4.70; (Table B-3) < 4.70.
Compound `CCOC(=O)c1ccc(NC(=O)NCc2ccncc2F)cc1` [Ethyl 4-(3-((3-fluoropyridm-4-yl)methyl)ureido)benzoate] gave a pEC50 (Table B-2) of 5.70 to 7.00.
For `CCOC(=O)c1ccc(NC(=O)NCc2c[nH]nc2C)cc1` [Ethyl 4-(3-((3-methyl-1H-pyrazol-4-yl)methyl)ureido)benzoate], under “Table B-1”, the pEC50 was < 4.70.
Regarding `CCOC(=O)c1ccc(NC(=O)NCc2ccncc2C)cc1` [Ethyl 4-(3-((3-methylpyridin-4-yl)methyl)ureido)benzoate], the pEC50 (Table B-2) was < 4.70.
Take `CCOC(=O)c1ccc(NC(=O)NCc2cocn2)cc1` [Ethyl 4-(3-(oxazol-4-ylmethyl)ureido)benzoate]: the negative-log EC50 (pEC50) (Table B-1) is < 4.70.
Turning to `CCOC(=O)c1ccc(NC(=O)NCc2ccnnc2)cc1` [Ethyl 4-(3-(pyridazin-4-ylmethyl)ureido)benzoate], the pEC50 (Table B-3) is < 4.70.
Same read-out and setting: in the case of `CCOC(=O)c1ccc(NC(=O)NCc2ccccn2)cc1` [Ethyl 4-(3-(pyridin-2-ylmethyl)ureido)benzoate] it was < 4.70.
Still for that read-out and setting: in the case of `CCOC(=O)c1ccc(NC(=O)NCc2cccnc2)cc1` [Ethyl 4-(3-(pyridin-3-ylmethyl)ureido)benzoate] it was < 4.70.
On the same count and under the same terms, in the case of `CCOC(=O)c1ccc(NC(=S)NCc2ccncc2)cc1` [Ethyl 4-(3-(pyridin-4-ylmethyl)thioureido)benzoate] it was < 4.70.
Consider `CCOC(=O)c1ccc(NC(=O)NCc2cncnc2)cc1` [Ethyl 4-(3-(pyrimidin-5-ylmethyl)ureido)benzoate], for which the pEC50 (Table B-3) was < 4.70.
Still for that read-out and setting: then `CCOC(=O)c1ccc(NC(=O)NCc2ccnc3ccccc23)cc1` [Ethyl 4-(3-(quinolin-4-ylmethyl)ureido)benzoate], with < 4.70.
On the same count and under the same terms, in the case of `CCOC(=O)c1ccc(NC(=O)NCc2ccccc2)cc1` [Ethyl 4-(3-benzylureido)benzoate] it was < 4.70.
For `COC(=O)c1ccc(N(C)C(=O)NCc2ccncc2)cc1` [Methyl 4-(1-methyl-3-(pyridin-4-ylmethyl)ureido)benzoate], the pEC50 (Table B-3) is < 4.70.
